The results in this text go back to ChEMBL document CHEMBL4325871 (Eur J Med Chem, 2019).

For experiment [1], the target named is T1, Serine/threonine-protein kinase Chk1 (Homo sapiens) (UniProt O14757).
T1 sequence (whole entry): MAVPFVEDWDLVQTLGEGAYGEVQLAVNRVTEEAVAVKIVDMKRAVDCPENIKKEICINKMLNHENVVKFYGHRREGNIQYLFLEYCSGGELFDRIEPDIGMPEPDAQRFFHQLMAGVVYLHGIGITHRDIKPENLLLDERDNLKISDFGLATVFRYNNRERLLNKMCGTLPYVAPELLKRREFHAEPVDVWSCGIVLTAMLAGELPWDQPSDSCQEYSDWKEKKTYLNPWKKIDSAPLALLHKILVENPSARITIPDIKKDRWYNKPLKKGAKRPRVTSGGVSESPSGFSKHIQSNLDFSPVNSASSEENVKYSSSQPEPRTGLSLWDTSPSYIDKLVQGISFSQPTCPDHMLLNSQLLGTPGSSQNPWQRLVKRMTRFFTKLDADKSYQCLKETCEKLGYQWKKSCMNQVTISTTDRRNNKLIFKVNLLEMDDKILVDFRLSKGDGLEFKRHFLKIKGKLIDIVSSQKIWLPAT
In words: Inhibition of CHK1 phosphorylation at S345 residue in human HCT116 cells at 20 uM after 8 hrs by Western blot analysis. It is filed as cell-based.

Experiment [2] addresses Calcium/calmodulin-dependent protein kinase type IV (Homo sapiens) (UniProt Q16566). In words: Inhibition of human CAMK4 assessed as residual activity at 1 uM using KKLNRTLSFAEPG as substrate by [gamma-33P]-ATP assay relative to control.
The target in experiment [3] is CDK18/Cyclin Y (Homo sapiens) (UniProt Q07002+Q8ND76). Briefly: Inhibition of human CDK18/cyclin-Y assessed as residual activity at 1 uM using RB protein as substrate by [gamma-33P]-ATP assay relative to control. The experiment is classed as protein-complex assay.
In experiment [4] the target is Mitogen-activated protein kinase 15 (Homo sapiens) (UniProt Q8TD08). In words: Inhibition of human ERK7 assessed as residual activity at 1 uM using MBP as substrate by [gamma-33P]-ATP assay relative to control.
Experiment [5] concerns the target Kinase suppressor of Ras 2 (Homo sapiens) (UniProt Q6VAB6). Briefly: Inhibition of human KSR2 assessed as residual activity at 1 uM using KRREILSRRPSYR as substrate by [gamma-33P]-ATP assay relative to control.
Experiment [6] addresses Dual specificity mitogen-activated protein kinase kinase 7 (Homo sapiens) (UniProt O14733). Briefly: Inhibition of human MKK7 assessed as residual activity at 1 uM using JNK as substrate by [gamma-33P]-ATP assay relative to control.
In experiment [7] the target is Mitogen-activated protein kinase kinase kinase 9 (Homo sapiens) (UniProt P80192). In words: Inhibition of human MLK1 assessed as residual activity at 1 uM using casein as substrate by [gamma-33P]-ATP assay relative to control.
Experiment [8] deals with Mitogen-activated protein kinase 12 (Homo sapiens) (UniProt P53778). Briefly: Inhibition of human p38gamma assessed as residual activity at 1 uM using MBP as substrate by [gamma-33P]-ATP assay relative to control.
Experiment [9] has as its target Serine/threonine-protein kinase N1 (Homo sapiens) (UniProt Q16512). Briefly: Inhibition of human PKN1 assessed as residual activity at 1 uM using KKLNRTLSVA as substrate by [gamma-33P]-ATP assay relative to control.
Experiment [10] deals with Dual serine/threonine and tyrosine protein kinase (Homo sapiens) (UniProt Q6XUX3). In words: Inhibition of human RIPK5 assessed as residual activity at 1 uM using MBP as substrate by [gamma-33P]-ATP assay relative to control.
In experiment [11] the target is Serine/threonine-protein kinase ULK3 (Homo sapiens) (UniProt Q6PHR2). In words: Inhibition of human ULK3 assessed as residual activity at 1 uM using MBP as substrate by [gamma-33P]-ATP assay relative to control.
For experiment [12], the target named is NUAK family SNF1-like kinase 1 (Homo sapiens) (UniProt O60285). Briefly: Inhibition of human ARK5 assessed as residual activity at 1 uM using KKKVSRSGLYRSPSMPENLNRPR as substrate by [gamma-33P]-ATP assay relative to control.
The target in experiment [13] is Cyclin-dependent kinase 1/cyclin B1 (Homo sapiens) (UniProt P06493+P14635). In words: Inhibition of human CDK1/cyclinB assessed as residual activity at 1 uM using Histone H1 as substrate by [gamma-33P]-ATP assay relative to control. It is filed as protein-complex assay.
In experiment [14] the target is CDK2/Cyclin A2 (Homo sapiens) (UniProt P24941+P20248). Briefly: Inhibition of human CDK2/cyclin-A assessed as residual activity at 1 uM using histone H1 as substrate by [gamma-33P]-ATP assay relative to control. The experiment is classed as protein-complex assay.
Experiment [15] addresses MAP/microtubule affinity-regulating kinase 3 (Homo sapiens) (UniProt P27448). In words: Inhibition of human MARK3 assessed as residual activity at 1 uM using KKKVSRSGLYRSPSMPENLNRPR as substrate by [gamma-33P]-ATP assay relative to control.
In experiment [16] the target is Myosin-IIIb (Homo sapiens) (UniProt Q8WXR4). Briefly: Inhibition of human MYO3B assessed as residual activity at 1 uM using MBP as substrate by [gamma-33P]-ATP assay relative to control.
In experiment [17] the target is Inactive tyrosine-protein kinase PEAK1 (Homo sapiens) (UniProt Q9H792). Briefly: Inhibition of human PEAK1 assessed as residual activity at 1 uM using MBP as substrate by [gamma-33P]-ATP assay relative to control.
Experiment [18] has as its target High affinity nerve growth factor receptor (Homo sapiens) (UniProt P04629). In words: Inhibition of human TRKA assessed as residual activity at 1 uM using poly[Glu:Tyr] (4:1) as substrate by [gamma-33P]-ATP assay relative to control.

Structures are written as SMILES. Activity calls are given as the source filed them. No cut-off for these calls is given here.

Kinase suppressor of Ras 2 (Homo sapiens), sequence (Q6VAB6 whole entry): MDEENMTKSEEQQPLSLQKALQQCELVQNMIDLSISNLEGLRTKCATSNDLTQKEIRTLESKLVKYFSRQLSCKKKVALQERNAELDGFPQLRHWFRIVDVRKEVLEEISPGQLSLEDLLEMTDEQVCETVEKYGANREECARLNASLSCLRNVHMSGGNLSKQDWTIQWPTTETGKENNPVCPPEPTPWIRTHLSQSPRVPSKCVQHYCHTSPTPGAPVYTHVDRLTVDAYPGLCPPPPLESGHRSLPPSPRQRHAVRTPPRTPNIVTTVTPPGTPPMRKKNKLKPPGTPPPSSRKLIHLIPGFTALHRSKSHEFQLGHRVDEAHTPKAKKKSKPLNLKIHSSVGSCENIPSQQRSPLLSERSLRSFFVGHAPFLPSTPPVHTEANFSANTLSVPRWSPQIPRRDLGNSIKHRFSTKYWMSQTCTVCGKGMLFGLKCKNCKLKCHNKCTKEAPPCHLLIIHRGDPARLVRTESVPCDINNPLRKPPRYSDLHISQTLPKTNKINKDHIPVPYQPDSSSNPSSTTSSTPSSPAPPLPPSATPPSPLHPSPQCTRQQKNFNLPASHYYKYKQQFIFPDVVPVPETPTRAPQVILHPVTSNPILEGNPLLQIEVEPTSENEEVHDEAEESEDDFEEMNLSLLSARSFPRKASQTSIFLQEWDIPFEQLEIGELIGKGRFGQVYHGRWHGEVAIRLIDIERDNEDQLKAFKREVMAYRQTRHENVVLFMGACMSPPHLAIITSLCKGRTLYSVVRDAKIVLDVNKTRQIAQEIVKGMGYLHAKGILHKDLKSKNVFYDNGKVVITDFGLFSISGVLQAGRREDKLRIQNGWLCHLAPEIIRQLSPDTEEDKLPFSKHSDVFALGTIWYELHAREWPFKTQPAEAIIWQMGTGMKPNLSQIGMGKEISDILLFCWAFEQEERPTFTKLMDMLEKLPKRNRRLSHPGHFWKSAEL
Serine/threonine-protein kinase ULK3 (Homo sapiens), sequence (Q6PHR2 whole entry): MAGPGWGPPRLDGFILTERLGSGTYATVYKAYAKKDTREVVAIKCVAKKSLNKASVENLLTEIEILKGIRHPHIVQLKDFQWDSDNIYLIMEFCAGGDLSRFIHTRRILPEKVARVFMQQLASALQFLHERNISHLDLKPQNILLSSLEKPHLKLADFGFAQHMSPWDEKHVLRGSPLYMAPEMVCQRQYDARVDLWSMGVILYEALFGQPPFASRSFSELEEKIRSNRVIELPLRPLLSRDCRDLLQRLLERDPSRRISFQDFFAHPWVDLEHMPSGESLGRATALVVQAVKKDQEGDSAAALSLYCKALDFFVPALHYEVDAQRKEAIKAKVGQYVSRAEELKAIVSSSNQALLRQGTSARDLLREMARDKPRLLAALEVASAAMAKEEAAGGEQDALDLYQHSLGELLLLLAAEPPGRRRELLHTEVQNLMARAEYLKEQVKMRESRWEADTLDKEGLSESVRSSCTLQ
Dual specificity mitogen-activated protein kinase kinase 7 (Homo sapiens), sequence (O14733 whole entry): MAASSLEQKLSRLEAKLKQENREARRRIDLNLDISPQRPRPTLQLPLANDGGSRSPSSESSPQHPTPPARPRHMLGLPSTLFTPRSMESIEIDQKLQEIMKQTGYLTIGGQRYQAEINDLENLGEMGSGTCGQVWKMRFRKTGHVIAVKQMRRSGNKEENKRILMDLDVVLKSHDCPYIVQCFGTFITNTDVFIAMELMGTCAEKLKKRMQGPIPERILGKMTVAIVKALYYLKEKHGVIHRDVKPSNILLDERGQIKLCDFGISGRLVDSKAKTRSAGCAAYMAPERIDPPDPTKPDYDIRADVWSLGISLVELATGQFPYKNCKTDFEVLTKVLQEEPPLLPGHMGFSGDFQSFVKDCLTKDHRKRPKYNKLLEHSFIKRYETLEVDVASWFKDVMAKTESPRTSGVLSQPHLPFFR
Mitogen-activated protein kinase 12 (Homo sapiens), sequence (P53778 whole entry): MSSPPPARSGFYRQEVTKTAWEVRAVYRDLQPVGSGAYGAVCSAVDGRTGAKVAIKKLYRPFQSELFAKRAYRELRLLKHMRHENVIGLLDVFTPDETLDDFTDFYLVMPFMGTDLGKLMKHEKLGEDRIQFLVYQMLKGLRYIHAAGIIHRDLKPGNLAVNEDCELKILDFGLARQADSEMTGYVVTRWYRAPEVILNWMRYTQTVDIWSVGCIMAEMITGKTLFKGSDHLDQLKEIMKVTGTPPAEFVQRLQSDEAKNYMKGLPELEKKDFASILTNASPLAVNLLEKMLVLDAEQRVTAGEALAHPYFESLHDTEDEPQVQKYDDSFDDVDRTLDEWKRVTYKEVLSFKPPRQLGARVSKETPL
Mitogen-activated protein kinase 15 (Homo sapiens), sequence (Q8TD08 whole entry): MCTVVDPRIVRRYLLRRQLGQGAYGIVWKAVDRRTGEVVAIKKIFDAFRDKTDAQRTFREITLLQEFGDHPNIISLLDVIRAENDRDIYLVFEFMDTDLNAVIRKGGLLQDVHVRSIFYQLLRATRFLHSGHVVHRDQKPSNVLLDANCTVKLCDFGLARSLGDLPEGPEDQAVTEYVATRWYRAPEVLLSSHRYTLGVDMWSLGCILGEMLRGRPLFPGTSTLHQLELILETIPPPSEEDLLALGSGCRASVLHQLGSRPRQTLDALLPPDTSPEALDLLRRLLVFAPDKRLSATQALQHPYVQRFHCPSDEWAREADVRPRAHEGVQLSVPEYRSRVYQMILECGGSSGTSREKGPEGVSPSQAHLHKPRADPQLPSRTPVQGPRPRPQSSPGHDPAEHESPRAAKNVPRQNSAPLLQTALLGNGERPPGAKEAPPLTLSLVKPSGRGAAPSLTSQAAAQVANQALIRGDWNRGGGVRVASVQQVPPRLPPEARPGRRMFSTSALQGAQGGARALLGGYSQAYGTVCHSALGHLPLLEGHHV
Dual serine/threonine and tyrosine protein kinase (Homo sapiens), sequence (Q6XUX3 whole entry): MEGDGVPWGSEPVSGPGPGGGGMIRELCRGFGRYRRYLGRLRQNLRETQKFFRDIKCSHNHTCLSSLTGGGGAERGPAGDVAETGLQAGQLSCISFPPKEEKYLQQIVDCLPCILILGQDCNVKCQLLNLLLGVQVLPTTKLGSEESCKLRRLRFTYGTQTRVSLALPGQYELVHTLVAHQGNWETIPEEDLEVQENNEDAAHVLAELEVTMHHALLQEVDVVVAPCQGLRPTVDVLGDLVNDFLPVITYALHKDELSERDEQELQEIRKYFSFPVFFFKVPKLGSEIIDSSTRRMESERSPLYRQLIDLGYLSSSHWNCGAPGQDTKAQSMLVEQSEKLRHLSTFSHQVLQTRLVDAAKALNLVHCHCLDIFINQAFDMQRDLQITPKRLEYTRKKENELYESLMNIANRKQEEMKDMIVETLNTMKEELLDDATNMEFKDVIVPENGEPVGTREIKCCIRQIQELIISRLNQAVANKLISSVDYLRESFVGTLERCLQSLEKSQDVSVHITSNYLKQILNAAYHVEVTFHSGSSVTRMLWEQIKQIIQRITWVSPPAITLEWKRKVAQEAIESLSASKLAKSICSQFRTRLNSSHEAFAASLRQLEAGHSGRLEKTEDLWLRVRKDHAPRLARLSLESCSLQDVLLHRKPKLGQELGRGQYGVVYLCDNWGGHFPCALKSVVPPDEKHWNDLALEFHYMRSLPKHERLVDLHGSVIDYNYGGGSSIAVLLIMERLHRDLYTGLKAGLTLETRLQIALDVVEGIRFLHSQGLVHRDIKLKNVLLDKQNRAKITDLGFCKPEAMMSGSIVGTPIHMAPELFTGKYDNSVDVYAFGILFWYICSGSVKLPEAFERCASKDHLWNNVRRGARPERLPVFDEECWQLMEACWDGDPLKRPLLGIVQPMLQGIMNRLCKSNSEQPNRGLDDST
NUAK family SNF1-like kinase 1 (Homo sapiens), sequence (O60285 whole entry): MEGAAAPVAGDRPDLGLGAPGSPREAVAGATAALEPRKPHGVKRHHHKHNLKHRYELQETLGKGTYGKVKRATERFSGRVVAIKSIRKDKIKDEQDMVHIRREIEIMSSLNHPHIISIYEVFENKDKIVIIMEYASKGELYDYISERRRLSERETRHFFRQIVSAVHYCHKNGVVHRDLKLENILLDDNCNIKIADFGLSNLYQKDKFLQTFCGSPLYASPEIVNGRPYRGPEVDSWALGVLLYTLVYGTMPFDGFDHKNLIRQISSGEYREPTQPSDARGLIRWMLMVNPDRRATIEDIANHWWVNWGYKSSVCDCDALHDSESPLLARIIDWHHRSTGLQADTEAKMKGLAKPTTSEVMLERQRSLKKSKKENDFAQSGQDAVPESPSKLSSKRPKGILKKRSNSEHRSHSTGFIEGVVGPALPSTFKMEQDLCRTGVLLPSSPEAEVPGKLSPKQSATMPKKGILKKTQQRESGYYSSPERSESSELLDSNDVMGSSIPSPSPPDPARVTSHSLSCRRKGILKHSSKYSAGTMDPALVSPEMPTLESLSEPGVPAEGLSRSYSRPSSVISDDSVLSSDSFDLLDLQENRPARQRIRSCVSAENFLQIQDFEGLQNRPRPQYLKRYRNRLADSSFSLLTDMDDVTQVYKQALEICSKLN
Calcium/calmodulin-dependent protein kinase type IV (Homo sapiens), sequence (Q16566 whole entry): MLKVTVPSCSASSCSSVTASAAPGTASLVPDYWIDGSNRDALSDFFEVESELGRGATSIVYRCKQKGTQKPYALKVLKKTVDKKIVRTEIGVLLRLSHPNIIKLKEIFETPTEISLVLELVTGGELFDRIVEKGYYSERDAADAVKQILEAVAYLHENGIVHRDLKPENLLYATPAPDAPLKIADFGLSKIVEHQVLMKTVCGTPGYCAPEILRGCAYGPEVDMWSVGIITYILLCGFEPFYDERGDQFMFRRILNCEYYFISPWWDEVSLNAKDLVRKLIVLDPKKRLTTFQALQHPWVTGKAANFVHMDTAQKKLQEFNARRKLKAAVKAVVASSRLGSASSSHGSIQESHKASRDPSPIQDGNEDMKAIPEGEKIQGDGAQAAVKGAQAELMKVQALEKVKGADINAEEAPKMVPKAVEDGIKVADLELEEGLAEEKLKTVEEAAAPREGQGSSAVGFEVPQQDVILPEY

With `C(=C\c1ccccc1)/C[N+]12CN3CN(CN(C3)C1)C2`, in experiment [1], the inhibition entry is “inactive”. Moreover, the Activity was 92.2 to 94.4% in experiment [2]; 92.5 to 93.7% in experiment [3]; 95 to 96.7% in experiment [4]; 90.5 to 97% in experiment [5]; 96.4 to 98.9% in experiment [6]; 96.8% in experiment [7]. In addition, the Activity lay within 93.7 to 94.8% in [8], 87.8 to 90.1% in experiment [9], 91 to 92.4% in [10] and 90.5 to 93.8% in experiment [11].
`ClC/C=C/C[N+]12CN3CN(CN(C3)C1)C2`: the Activity was 87.9 to 94.8% in experiment [12]; 94.3 to 96.5% in experiment [13]; 97.3 to 97.8% in [14]; 148 to 153% in experiment [15]; 84.1 to 87.7% in experiment [16]; 94.2 to 94.3% in experiment [17]. Moreover, the Activity in [18] was in the range of 94 to 94.8%.
